What all share (format): cell-based, HIV-1
Assay [1] concerns AE01 pseudovirus (CRF01_AE). Conditions: R5, TZM-bl, 48 h, triplicate, mean ± SD of at least three independent experiments. The text has this:
(§1) A panel of plasmids encoding HIV-1 Envs were obtained through the AIDS Research and Reference Reagent Program (ARRRP), Division of AIDS, NIAID, NIH, including subtype A Env clones pSVIII-92RW020.5 and 92UG037.8 from Dr. B.H. Hahn; subtype B Env clones SC422661.8, TRO.11 and AC10.0.29 from Drs. D. Montefiori, F. Gao and M. Li, pRHPA4259.7 and pREJO4541.67 from Drs. B.H. Hahn and J.F. Salazar-Gonzalez, and pCAAN5342.A2 from Drs. B.H. Hahn and D.L. Kothe; subtype C Env clones Du172.17 and Du422.1 from Drs. D. Montefiori, F. Gao, S. Abdool Karim and G. Ramjee, CAP45.2.00.G3 from Drs. L. Morris, K. Mlisana and D. Montefiori, ZM197M.PB7 from Drs. B.H. Hahn, Y. Li and J.F. Salazar-Gonzalez, ZM109F.PB4 from Drs. E. Hunter and C. Derdeyn. Six CRF07_BC Env clones (CH064.20, CH070.1, CH091.9, CH110.2, CH119.10 and CH120.6) were generous gifts by Dr. Y. Shao in the Chinese Center for Disease Control and Prevention, Beijing, China. A panel of Env clones derived from subtype B′ (B01, B02, B04, and 43-22), CRF01_AE (SHX335.24, YN192.31, AE01, AE03, GX2010.36, GX11.13, GX2010.36H, BJ5.11), and CRF07_BC (BC02, BC03, BC05, BC07, BC14, SC19-15, BJ22-5, YN148R-9, XJ50-6, HB5-3) were kindly provided by Dr. Y. Wang from the National Institute for the Control of Pharmaceutical and Biological Products, Beijing, China.

The subject of assay [2] is BC07 pseudovirus (CRF07_BC). Conditions: R5, TZM-bl, 48 h, triplicate, mean ± SD of at least three independent experiments.
Excerpt: as §1

Assay [3] relates to BJ22-5 pseudovirus (CRF07_BC). Particulars: BJ22-5, CRF07_BC, R5; TZM-bl, 48 h; triplicate, mean ± SD of at least three independent experiments.
Excerpt: as §1

Assay [4] relates to SC19-15 pseudovirus (CRF07_BC). Conditions: SC19-15, CRF07_BC, R5; TZM-bl, 48 h; triplicate, mean ± SD of at least three independent experiments.
Excerpt: as §1

In assay [5] the test system is ZM109F.PB4 pseudovirus (subtype C). Conditions: R5, TZM-bl, 48 h, triplicate, mean ± SD of three independent experiments.
Excerpt: as §1

Assay [6] relates to SHX335.24 pseudovirus (CRF01_AE). Particulars: SHX335.24, CRF01_AE, R5; TZM-bl, 48 h; triplicate, mean ± SD of at least three independent experiments.
Excerpt: as §1

The subject of assay [7] is GX2010.36 pseudovirus (CRF01_AE). Particulars: GX2010.36, CRF01_AE, R5; TZM-bl, 48 h; triplicate, mean ± SD of at least three independent experiments.
Excerpt: as §1

The test system of assay [8] is CH110 pseudovirus (CRF07_BC). Conditions: R5, TZM-bl, 48 h, triplicate, mean ± SD of at least three independent experiments.
Excerpt: as §1

The test system of assay [9] is B04 pseudovirus (subtype B′). Particulars: R5, TZM-bl, 48 h, triplicate, mean ± SD of at least three independent experiments.
Excerpt: as §1

Assay [10] deals with SC422661.8 pseudovirus (subtype B). Conditions: SC422661.8, subtype B, R5; TZM-bl, 48 h; triplicate, mean ± SD of three independent experiments.
Excerpt: as §1

In assay [11] the test system is XJ50-6 pseudovirus (CRF07_BC). Conditions: XJ50-6, CRF07_BC, R5; TZM-bl, 48 h; triplicate, mean ± SD of at least three independent experiments.
Excerpt: as §1

The test system of assay [12] is RHPA4259 pseudovirus (subtype B). Particulars: R5, TZM-bl, 48 h, triplicate, mean ± SD of three independent experiments.
Excerpt: as §1

In assay [13] the test system is CAAN5342 pseudovirus (subtype B). Particulars: R5, TZM-bl, 48 h, triplicate, mean ± SD of three independent experiments.
Excerpt: as §1

Assay [14] has as its system CH091 pseudovirus (CRF07_BC). Conditions: R5, TZM-bl, 48 h, triplicate, mean ± SD of at least three independent experiments.
Excerpt: as §1

The subject of assay [15] is AC10.0.29 pseudovirus (subtype B). Conditions: AC10.0.29, subtype B, R5; TZM-bl, 48 h; triplicate, mean ± SD of three independent experiments.
Excerpt: as §1

Assay [16] deals with CH070 pseudovirus (CRF07_BC). Conditions: R5, TZM-bl, 48 h, triplicate, mean ± SD of at least three independent experiments.
Excerpt: as §1

The test system of assay [17] is B02 pseudovirus (subtype B′). Particulars: R5, TZM-bl, 48 h, triplicate, mean ± SD of at least three independent experiments.
Excerpt: as §1

Assay [18] has as its system Du422.1 pseudovirus (subtype C). Conditions: Du422.1, subtype C, R5; TZM-bl, 48 h; triplicate, mean ± SD of three independent experiments.
Excerpt: as §1

Assay [19] concerns GX11.13 pseudovirus (CRF01_AE). Conditions: GX11.13, CRF01_AE, R5; TZM-bl, 48 h; triplicate, mean ± SD of at least three independent experiments.
Excerpt: as §1

The test system of assay [20] is BC14 pseudovirus (CRF07_BC). Conditions: R5, TZM-bl, 48 h, triplicate, mean ± SD of at least three independent experiments.
Excerpt: as §1

Assay [21] concerns CH120 pseudovirus (CRF07_BC). Particulars: R5, TZM-bl, 48 h, triplicate, mean ± SD of at least three independent experiments.
Excerpt: as §1

Assay [22] concerns YN192.31 pseudovirus (CRF01_AE). Conditions: YN192.31, CRF01_AE, R5; TZM-bl, 48 h; triplicate, mean ± SD of at least three independent experiments.
Excerpt: as §1

Assay [23] has as its system REJO4541 pseudovirus (subtype B). Particulars: R5, TZM-bl, 48 h, triplicate, mean ± SD of three independent experiments.
Excerpt: as §1

This is an account of results in PMC3293837, “Biophysical Property and Broad Anti-HIV Activity of Albuvirtide, a 3-Maleimimidopropionic Acid-Modified Peptide Fusion Inhibitor” (PLoS ONE, 2012).

Take enfuvirtide: the IC50 (in general, the concentration that gives 50% inhibition) was determined as 24.8 ± 2.25 nM in assay [1]; 12.5 ± 1.58 nM in [2]; 25.8 ± 4.17 nM in assay [3]; 7.61 ± 0.97 nM in assay [4]; 76.4 ± 2.69 nM in [5]; 51 ± 7.35 nM in assay [6]. Moreover, the concentration for half-maximal inhibition (IC50) was 18.1 ± 3.75 nM in assay [7]; 18.6 ± 3.15 nM in assay [8]; 7.8 ± 0.43 nM in [9]; 28.2 ± 5.92 nM in [10]; 81.1 ± 17.6 nM in [11]; 281.9 ± 0.57 nM in [12]. Moreover, the concentration for half-maximal inhibition (IC50) was 723 ± 53.5 nM in assay [13]; 65.9 ± 14.3 nM in [14]; 10.1 ± 0.45 nM in [15]; 136 ± 36.4 nM in assay [16]; 8.59 ± 0.8 nM in [17]; 28.4 ± 5.14 nM in assay [18]. Besides, the IC50 in assay [19] amounted to 6.6 ± 0.32 nM; in assay [20] it was 109 ± 52.6 nM; in [21], 50.4 ± 4.22 nM; in [22], 68.5 ± 3.25 nM; in assay [23], 78.1 ± 11.3 nM.
